Measurements as given in publication PMC6737244, “Cathelicidin Peptides Restrict Bacterial Growth via Membrane Perturbation and Induction of Reactive Oxygen Species” (mBio, 2019).
Ends that are not written are not given here.

Experiments:
[1] = test system: Enterobacter cloacae OC4080; type: cell-based
Protocol: (§1) MICs were determined by using the broth microdilution method based on the general recommendations of the Clinical and Laboratory Standards Institute (CLSI). Bacteria were grown in CAMHB overnight. They were then diluted into fresh medium the following morning and grown to early log phase. The cultures were then diluted to approximately 5 × 10^5 CFU ml^−1, and 100 μl was added to sterile 96-well polypropylene microtiter plates (Corning, NY, USA) preloaded with twofold dilutions of antimicrobial peptides. […] All MIC assays were determined from at least three independent assays.

[2] = test system: Enterobacter cloacae OC4092; type: cell-based
Protocol: as §1

[3] = test system: Escherichia coli ATCC 25922; type: cell-based
Protocol: as §1

[4] = test system: Escherichia coli ATCC 35218; type: cell-based
Protocol: as §1

Escherichia coli MC4100a = type: cell-based
Protocol: as §1

Escherichia coli OC4075 = type: cell-based
Protocol: as §1

Escherichia coli UTI89 = type: cell-based
Protocol: as §1

[5] = test system: Klebsiella pneumoniae 262 (NDM1+); type: cell-based
Protocol: as §1

[6] = test system: Klebsiella pneumoniae 88 (NDM1+); type: cell-based
Protocol: as §1

[7] = test system: Klebsiella pneumoniae ATCC 700603; type: cell-based
Protocol: as §1

Klebsiella pneumoniae C2 = type: cell-based
Protocol: as §1

[8] = test system: Klebsiella pneumoniae OC4110; type: cell-based
Protocol: as §1

[9] = test system: Klebsiella pneumoniae OC8893; type: cell-based
Protocol: as §1

[10] = test system: Pseudomonas aeruginosa ATCC 27853; type: cell-based
Protocol: as §1

[11] = test system: Pseudomonas aeruginosa OC4083; type: cell-based
Protocol: as §1

[12] = test system: Pseudomonas aeruginosa PAO1; type: cell-based
Protocol: as §1

Gram-positive bacteria = conditions: cited from earlier work
From the text: The human cathelicidin LL-37 has important roles in modulating inflammatory responses. […] Perhaps because they are released in response to bacterial infection and tissue injuries, LL-37 and other cathelicidins can promote wound healing and reduce fibrosis ([8][–][10]). All of these desirable activities have generated significant interest in developing cathelicidins to treat bacterial infection and injuries, however, c ...

GRFKRFRKKLKKLFKKLSPVIPLLHLG [BMAP-27B, reference compound]
8 µM: MIC [8] | MIC [9]
ca. 10 fold: Fold-higher concentration needed to reach the MICs for Gram-positive bacteria (Gram-positive bacteria)
4 µM: MIC [1] | MIC [2] | MIC [3] | MIC [4] | MIC (Escherichia coli MC4100a) | MIC (Escherichia coli OC4075) | MIC (Escherichia coli UTI89) | MIC [5] | MIC [6] | MIC [7] | MIC (Klebsiella pneumoniae C2) | MIC [10] | MIC [11] | MIC [12]
